Values after ≈ are worked out from the molar mass of the structure shown.
Legend:
[1] = system: 4T1 cells [4T1细胞]; assay: In vitro cytotoxicity test (MTT, 72 h); conditions: Mus musculus, 4T1, 72 h
[2] = system: 4T1 cells [4T1细胞]

SMILES	IC50 [1] [µg/mL]	cytotoxicity (in words) [2]
CC(=O)O[C@@]12CO[C@@H]1C[C@H](O)[C@@]1(C)C(=O)[C@H](O)C3=C(C)[C@@H](OC(=O)[C@H](O)[C@@H](NC(=O)OC(C)(C)C)c4ccccc4)C[C@@](O)([C@@H](OC(=O)c4ccccc4)[C@H]21)C3(C)C [多西他赛]	0.0265 ± 0.00136 (≈ 0.0328 µM)	–
CCCCCC=CCC=CCCCCCCCC(=O)OC(C(=O)OC1CC2(O)C(OC(=O)c3ccccc3)C3C4(OC(C)=O)COC4CC(O)C3(C)C(=O)C(O)C(=C1C)C2(C)C)C(NC(=O)OC(C)(C)C)c1ccccc1 (stereo not drawn) [多西他赛亚油酸酯]	0.0136 ± 0.00204 (≈ 0.0127 µM)	细胞毒性强于多西他赛

— patent CN108310390A, “多西他赛亚油酸酯及其脂肪乳剂和应用” (Shenyang Pharmaceutical University, priority 2018, dated 2018)
